Data: patent US9492398B2, “Nanocapsulation of essential oils for preventing or curing infectious diseases alone or with an antibiotic” (Eydo Pharma, priority 2011, dated 2016)
In brackets after ≈: the same amount, converted by molar mass. Like-named read-outs stand apart in the source and are kept apart here.

Experiments:
[1] = from the literature; cited from earlier work
A. baumanni 12 = test: Minimal inhibitory concentration on Muller-Hinton agar; type: cell-based; details: read-out: Minimal Inhibitory Concentration
Method: (§1) The essential oils were also tested individually for their minimal inhibitory concentration.
(§2) The solution was first prepared at 40% in DMSO before being placed on the Muller-Hinton agar in the following manner in Table VIII:
(§3) Twenty-two different microorganisms were tested and their minimal inhibitory concentration was tested.

A. baumanni AYE = test: as above; type: cell-based
Method: as §1, §2, §3

A. baumanni CIP7034 = test: as above; type: cell-based
Method: as §1, §2, §3

A. baumanni SAN008 = test: as above; type: cell-based
Method: as §1, §2, §3

E. aerogenes 0705A0867 = test: as above; type: cell-based; details: for Minimal Inhibitory Concentration: E. aerogenes 0705A0867; for MIC: Klebsiella aerogenes
Method: as §1, §2, §3

E. coli 0705A0434 = test: as above; type: cell-based; details: for Minimal Inhibitory Concentration: E. coli 0705A0434; for MIC: Escherichia coli
Method: as §1, §2, §3

K. oxyloca 0705C0187 = test: as above; type: cell-based
Method: as §1, §2, §3

P. aeroginosa 0703C0259 = test: as above; type: cell-based
Method: as §1, §2, §3

P. aeroginosa 0704C0134 = test: as above; type: cell-based
Method: as §1, §2, §3

S. aureus 0701A0095 = test: as above; type: cell-based; details: for MIC: Staphylococcus aureus
Method: as §1, §2, §3

S. aureus 0702E0196 = test: as above; type: cell-based; details: for Minimal Inhibitory Concentration: S. aureus 0702E0196; for MIC: Staphylococcus aureus
Method: as §1, §2, §3

S. aureus 0703H0036 = test: as above; type: cell-based; details: for Minimal Inhibitory Concentration: S. aureus 0703H0036; for MIC: Staphylococcus aureus
Method: as §1, §2, §3

S. aureus 0706C0025 = test: as above; type: cell-based; details: for Minimal Inhibitory Concentration: S. aureus 0706C0025; for MIC: Staphylococcus aureus
Method: as §1, §2, §3

S. aureus ATC25923 = test: as above; type: cell-based; details: for Minimal Inhibitory Concentration: S. aureus ATC25923; for MIC: Staphylococcus aureus
Method: as §1, §2, §3

Salmonell enteritidis 4 = test: as above; type: cell-based
Method: as §1, §2, §3

A. baumanni CIP107292 = test: as above; type: cell-based
Method: as §1, §2, §3

A. baumanni CIP5377 = test: as above; type: cell-based; details: read-out: Minimal Inhibitory Concentration
Method: as §1, §2, §3

A. baumanni RCH = test: as above; type: cell-based; details: read-out: Minimal Inhibitory Concentration
Method: as §1, §2, §3

E. cloacae 0705A1743 = test: as above; type: cell-based
Method: as §1, §2, §3

E. coli ATCC25922 = test: as above; type: cell-based
Method: as §1, §2, §3

P. aeroginosa ATCC27853 = test: as above; type: cell-based; details: read-out: Minimal Inhibitory Concentration
Method: as §1, §2, §3

Question: With Gentamicin as the molecule, how does the “LD50 in mice by intraperitoneal injection” value (from here on “LD50 in mice”) [1] read?
Answer: 245 mg/kg

Question: With `O=C/C=C/c1ccccc1` [trans cinnamaldehyde] as the molecule, how does the MIC (A. baumanni 12; A. baumanni 12) read?
Answer: 1000 µg/mL (≈ 7.57 mM)

Question: What about the “Minimal Inhibitory Concentration” value (A. baumanni AYE; A. baumanni AYE) of the same molecule?
Answer: 2 mg/mL

Question: And the MIC (A. baumanni AYE; A. baumanni AYE, read-out: Minimal Inhibitory Concentration)?
Answer: 1000 µg/mL (≈ 7.57 mM)

Question: What about the MIC (A. baumanni CIP7034; A. baumanni CIP7034, read-out: Minimal Inhibitory Concentration) of the same molecule?
Answer: 1000 µg/mL (≈ 7.57 mM)

Question: And the “Minimal Inhibitory Concentration” value (A. baumanni SAN008; A. baumanni SAN008)?
Answer: 2 mg/mL

Question: And the MIC (A. baumanni SAN008; A. baumanni SAN008, read-out: Minimal Inhibitory Concentration)?
Answer: 1000 µg/mL (≈ 7.57 mM)

Question: What about the “Minimal Inhibitory Concentration” value (E. aerogenes 0705A0867) of the same molecule?
Answer: 2 mg/mL

Question: What about the MIC (E. aerogenes 0705A0867; 0705A0867, E. aerogenes 0705A0867, read-out: Minimal Inhibitory Concentration) of the same molecule?
Answer: 1000 µg/mL (≈ 7.57 mM)

Question: What about the “Minimal Inhibitory Concentration” value (E. coli 0705A0434) of the same molecule?
Answer: 2 mg/mL

Question: And the MIC (E. coli 0705A0434; 0705A0434, E. coli 0705A0434, read-out: Minimal Inhibitory Concentration)?
Answer: 1000 µg/mL (≈ 7.57 mM)

Question: What about the “Minimal Inhibitory Concentration” value (K. oxyloca 0705C0187; K. oxyloca 0705C0187) of the same molecule?
Answer: 2 mg/mL

Question: And the MIC (K. oxyloca 0705C0187; K. oxyloca 0705C0187, read-out: Minimal Inhibitory Concentration)?
Answer: 1000 µg/mL (≈ 7.57 mM)

Question: What about the MIC (P. aeroginosa 0703C0259) of the same molecule?
Answer: 1500 µg/mL (≈ 11.3 mM)

Question: And the “Minimal Inhibitory Concentration” value (P. aeroginosa 0703C0259)?
Answer: 2 mg/mL

Question: And the “Minimal Inhibitory Concentration” value (P. aeroginosa 0704C0134; P. aeroginosa 0704C0134)?
Answer: 2 mg/mL

Question: And the MIC (P. aeroginosa 0704C0134; P. aeroginosa 0704C0134, read-out: Minimal Inhibitory Concentration)?
Answer: 1000 µg/mL (≈ 7.57 mM)

Question: What about the “Minimal Inhibitory Concentration” value (S. aureus 0701A0095; S. aureus 0701A0095) of the same molecule?
Answer: 1.5 mg/mL

Question: What about the MIC (S. aureus 0701A0095; 0701A0095, S. aureus 0701A0095, read-out: Minimal Inhibitory Concentration) of the same molecule?
Answer: 750 µg/mL (≈ 5.67 mM)

Question: And the “Minimal Inhibitory Concentration” value (S. aureus 0702E0196)?
Answer: 1.5 mg/mL

Question: What about the MIC (S. aureus 0702E0196; 0702E0196, S. aureus 0702E0196, read-out: Minimal Inhibitory Concentration) of the same molecule?
Answer: 1000 µg/mL (≈ 7.57 mM)

Question: And the “Minimal Inhibitory Concentration” value (S. aureus 0703H0036)?
Answer: 1.5 mg/mL

Question: And the MIC (S. aureus 0703H0036; 0703H0036, S. aureus 0703H0036, read-out: Minimal Inhibitory Concentration)?
Answer: 750 µg/mL (≈ 5.67 mM)

Question: And the “Minimal Inhibitory Concentration” value (S. aureus 0706C0025)?
Answer: 0.5 mg/mL

Question: What about the MIC (S. aureus 0706C0025; 0706C0025, S. aureus 0706C0025, read-out: Minimal Inhibitory Concentration) of the same molecule?
Answer: 750 µg/mL (≈ 5.67 mM)

Question: And the “Minimal Inhibitory Concentration” value (S. aureus ATC25923)?
Answer: 1.5 mg/mL

Question: What about the MIC (S. aureus ATC25923; ATC25923, S. aureus ATC25923, read-out: Minimal Inhibitory Concentration) of the same molecule?
Answer: 750 µg/mL (≈ 5.67 mM)

Question: And the “Minimal Inhibitory Concentration” value (Salmonell enteritidis 4; Salmonell enteritidis 4)?
Answer: 2 mg/mL

Question: And the MIC (Salmonell enteritidis 4; Salmonell enteritidis 4, read-out: Minimal Inhibitory Concentration)?
Answer: 1000 µg/mL (≈ 7.57 mM)

Question: Which “LD50 in mice” value [1] does the source give for `CO[C@@H]1[C@@H](O[C@@H]2O[C@H](C)[C@@H](O[C@H]3C[C@@](C)(O)[C@@H](OC(=O)CC(C)C)[C@H](C)O3)[C@H](N(C)C)[C@H]2O)[C@@H](CC=O)C[C@@H](C)[C@@H](O)/C=C/C=C/C[C@@H](C)OC(=O)C[C@H]1OC(C)=O` [Josamycin] here?
Answer: 780 mg/kg

Question: Which MIC (A. baumanni 12) does the source give for `Cc1ccc(C(C)C)cc1O` [carvacrol] here?
Answer: 1500 µg/mL (≈ 9.99 mM)

Question: What about the “Minimal Inhibitory Concentration” value (A. baumanni AYE; A. baumanni AYE) of the same molecule?
Answer: 1.5 mg/mL

Question: What about the MIC (A. baumanni AYE; read-out: Minimal Inhibitory Concentration, A. baumanni AYE) of the same molecule?
Answer: 1000 µg/mL (≈ 6.66 mM)

Question: And the “Minimal Inhibitory Concentration” value (A. baumanni CIP107292; A. baumanni CIP107292)?
Answer: 1.5 mg/mL

Question: What about the MIC (A. baumanni CIP107292; read-out: Minimal Inhibitory Concentration, A. baumanni CIP107292) of the same molecule?
Answer: 1000 µg/mL (≈ 6.66 mM)

Question: And the MIC (A. baumanni CIP5377)?
Answer: 1000 µg/mL (≈ 6.66 mM)

Question: And the “Minimal Inhibitory Concentration” value (A. baumanni CIP7034; A. baumanni CIP7034)?
Answer: 1.5 mg/mL

Question: What about the MIC (A. baumanni CIP7034; read-out: Minimal Inhibitory Concentration, A. baumanni CIP7034) of the same molecule?
Answer: 1000 µg/mL (≈ 6.66 mM)

Question: What about the MIC (A. baumanni RCH) of the same molecule?
Answer: 1000 µg/mL (≈ 6.66 mM)

Question: What about the “Minimal Inhibitory Concentration” value (A. baumanni SAN008; A. baumanni SAN008) of the same molecule?
Answer: 1.5 mg/mL

Question: What about the MIC (A. baumanni SAN008; read-out: Minimal Inhibitory Concentration, A. baumanni SAN008) of the same molecule?
Answer: 1000 µg/mL (≈ 6.66 mM)

Question: And the “Minimal Inhibitory Concentration” value (E. aerogenes 0705A0867)?
Answer: 2 mg/mL

Question: And the MIC (E. aerogenes 0705A0867; 0705A0867, read-out: Minimal Inhibitory Concentration, E. aerogenes 0705A0867)?
Answer: 1500 µg/mL (≈ 9.99 mM)

Question: And the “Minimal Inhibitory Concentration” value (E. cloacae 0705A1743; E. cloacae 0705A1743)?
Answer: 2 mg/mL

Question: What about the MIC (E. cloacae 0705A1743; Enterobacter cloacae, 0705A1743, read-out: Minimal Inhibitory Concentration, E. cloacae 0705A1743) of the same molecule?
Answer: 1500 µg/mL (≈ 9.99 mM)

Question: What about the “Minimal Inhibitory Concentration” value (E. coli 0705A0434) of the same molecule?
Answer: 2 mg/mL

Question: What about the MIC (E. coli 0705A0434; 0705A0434, read-out: Minimal Inhibitory Concentration, E. coli 0705A0434) of the same molecule?
Answer: 1500 µg/mL (≈ 9.99 mM)

Question: And the “Minimal Inhibitory Concentration” value (E. coli ATCC25922; E. coli ATCC25922)?
Answer: 2 mg/mL

Question: And the MIC (E. coli ATCC25922; Escherichia coli, ATCC25922, read-out: Minimal Inhibitory Concentration, E. coli ATCC25922)?
Answer: 1500 µg/mL (≈ 9.99 mM)

Question: What about the “Minimal Inhibitory Concentration” value (K. oxyloca 0705C0187; K. oxyloca 0705C0187) of the same molecule?
Answer: 2 mg/mL

Question: And the MIC (K. oxyloca 0705C0187; read-out: Minimal Inhibitory Concentration, K. oxyloca 0705C0187)?
Answer: 1500 µg/mL (≈ 9.99 mM)

Question: And the “Minimal Inhibitory Concentration” value (P. aeroginosa 0704C0134; P. aeroginosa 0704C0134)?
Answer: 5 mg/mL

Question: What about the MIC (P. aeroginosa 0704C0134; read-out: Minimal Inhibitory Concentration, P. aeroginosa 0704C0134) of the same molecule?
Answer: 2500 µg/mL (≈ 16.6 mM)

Question: What about the MIC (P. aeroginosa ATCC27853) of the same molecule?
Answer: 7500 µg/mL (≈ 49.9 mM)

Question: What about the MIC (S. aureus 0701A0095; 0701A0095, read-out: Minimal Inhibitory Concentration) of the same molecule?
Answer: 1500 µg/mL (≈ 9.99 mM)

Question: And the “Minimal Inhibitory Concentration” value (S. aureus 0702E0196)?
Answer: 1 mg/mL

Question: And the MIC (S. aureus 0702E0196; 0702E0196, read-out: Minimal Inhibitory Concentration, S. aureus 0702E0196)?
Answer: 1500 µg/mL (≈ 9.99 mM)

Question: And the “Minimal Inhibitory Concentration” value (S. aureus 0703H0036)?
Answer: 2 mg/mL

Question: What about the MIC (S. aureus 0703H0036; 0703H0036, read-out: Minimal Inhibitory Concentration, S. aureus 0703H0036) of the same molecule?
Answer: 1500 µg/mL (≈ 9.99 mM)

Question: What about the “Minimal Inhibitory Concentration” value (S. aureus 0706C0025) of the same molecule?
Answer: 2 mg/mL

Question: What about the MIC (S. aureus 0706C0025; 0706C0025, read-out: Minimal Inhibitory Concentration, S. aureus 0706C0025) of the same molecule?
Answer: 1500 µg/mL (≈ 9.99 mM)

Question: What about the “Minimal Inhibitory Concentration” value (S. aureus ATC25923) of the same molecule?
Answer: 0.75 mg/mL

Question: What about the MIC (S. aureus ATC25923; ATC25923, read-out: Minimal Inhibitory Concentration, S. aureus ATC25923) of the same molecule?
Answer: 1500 µg/mL (≈ 9.99 mM)

Question: What about the “Minimal Inhibitory Concentration” value (Salmonell enteritidis 4; Salmonell enteritidis 4) of the same molecule?
Answer: 2.5 mg/mL

Question: What about the MIC (Salmonell enteritidis 4; read-out: Minimal Inhibitory Concentration, Salmonell enteritidis 4) of the same molecule?
Answer: 2000 µg/mL (≈ 13.3 mM)

Question: With `CC[C@H]1OC(=O)[C@H](C)[C@@H](O[C@H]2C[C@@](C)(OC)[C@@H](O)[C@H](C)O2)[C@H](C)[C@@H](O[C@@H]2O[C@H](C)C[C@H](N(C)C)[C@H]2O)[C@](C)(O)C[C@@H](C)C(=O)[C@H](C)[C@@H](O)[C@]1(C)O` [Erythromycin] as the molecule, how does the “LD50 in mice” value [1] read?
Answer: 280 mg/kg
